In patent publication US9848599B2, “Co-crystals of 3-iodopropynyl butylcarbamate” (priority 2012, dated 2017):

Assay: Thermal stability compared with IPBC
Type: physicochemical

| Molecule | thermal stability compared with IPBC |
| --- | --- |
| CCCCNC(=O)OCC#CI.CCCCNC(=O)OCC#CI.c1cc(-c2ccncc2)ccn1 [Co-Crystal 2, Co-Crystal Containing 3-iodopropynyl butylcarbamate and 4,4′-bipyridine in a 2:1 Molar Ratio] | higher thermal stability |
| Co-Crystal Containing 3-iodopropynyl butylcarbamate and N,N′-bis(4-pyridylcarbonyl)-1,6-hexanediamine in a 2:1 Molar Ratio [Co-Crystal 5] | higher thermal stability |
| Co-crystal containing 3-iodopropynyl butylcarbamate and 4-[2-(4-pyridinyl)ethyl]pyridine in a 2:1 Molar Ratio [Co-Crystal 1] | higher thermal stability |
